# Measurements reported in PubChem BioAssay (NCI).
# Several values for one entry are separate records, joined by “and”; a condition that tells them apart may be missing. Equal values may be shown once.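 Briefly, cells in 96-well plates were exposed to five compound concentrations for 48 h, and endpoints were estimated by linear interpolation. GI50 marks 50% less growth. TGI: concentration producing complete growth inhibition.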
# What was measured:
# Assay in all cases: NCI-60 cell line screen, 48 h
# [1] = test system: 786-0 renal
# [2] = test system: A498 renal
# [3] = test system: A549 NSCLC
# [4] = test system: ACHN renal
# [5] = test system: BT-549 breast
# [6] = test system: CAKI-1 renal
# [7] = test system: CCRF-CEM leukemia
# [8] = test system: COLO 205 colon
# [9] = test system: DU-145 prostate
# [10] = test system: EKVX NSCLC
# [11] = test system: HCC-2998 colon
# [12] = test system: HCT-116 colon
# [13] = test system: HCT-15 colon
# [14] = test system: HL-60(TB) leukemia
# [15] = test system: HOP-62 NSCLC
# [16] = test system: HOP-92 NSCLC
# [17] = test system: HS 578T breast
# [18] = test system: HT29 colon
# [19] = test system: IGROV1 ovarian
# [20] = test system: K-562 leukemia
# [21] = test system: KM12 colon
# [22] = test system: LOX IMVI melanoma
# [23] = test system: M14 melanoma
# [24] = test system: MALME-3M melanoma
# [25] = test system: MCF7 breast
# [26] = test system: MDA-MB-231 breast
# [27] = test system: MDA-MB-435
# [28] = test system: MOLT-4 leukemia
# [29] = test system: NCI-H226 lung
# [30] = test system: NCI-H23 lung
# [31] = test system: NCI-H460 lung
# [32] = test system: NCI-H522 lung
# [33] = test system: NCI/ADR-RES ovarian
# [34] = test system: OVCAR-3 ovarian
# [35] = test system: OVCAR-4 ovarian
# [36] = test system: OVCAR-5 ovarian
# [37] = test system: OVCAR-8 ovarian
# [38] = test system: PC-3 prostate
# [39] = test system: RPMI-8226 leukemia
# [40] = test system: RXF 393 renal
# [41] = test system: SF-268 CNS
# [42] = test system: SF-295 CNS
# [43] = test system: SF-539 CNS
# [44] = test system: SK-MEL-2 melanoma
# [45] = test system: SK-MEL-28 melanoma
# [46] = test system: SK-MEL-5 melanoma
# [47] = test system: SK-OV-3 ovarian
# [48] = test system: SN12C renal
# [49] = test system: SNB-19 CNS
# [50] = test system: SNB-75 CNS
# [51] = test system: SW-620 colon
# [52] = test system: T-47D breast
# [53] = test system: TK-10 renal
# [54] = test system: U251 CNS
# [55] = test system: UACC-257 melanoma
# [56] = test system: UACC-62 melanoma
# [57] = test system: UO-31 renal
smiles,measurement,setting,value
C1=C/COCc2cc(ccc2OCCN2CCCC2)Nc2nccc(n2)-c2cccc(c2)COC/1,GI50,[1],1280 nM and 1400 nM
same,TGI,[1],3140 nM and 2880 nM
same,GI50,[2],1250 nM and 1310 nM
same,TGI,[2],2700 nM and 3980 nM
same,GI50,[3],1060 nM and 1140 nM
same,TGI,[3],3000 nM and 3380 nM
same,GI50,[4],394 nM and 486 nM
same,TGI,[4],2760 nM and 3680 nM
same,GI50,[5],2150 nM and 2300 nM
same,TGI,[5],5020 nM and 4870 nM
same,GI50,[6],443 nM and 463 nM
same,TGI,[6],2040 nM and 2250 nM
same,GI50,[7],652 nM and 1080 nM
same,TGI,[7],11500 nM and 6620 nM
same,GI50,[8],443 nM and 643 nM
same,TGI,[8],1840 nM and 1850 nM
same,GI50,[9],433 nM and 749 nM
same,TGI,[9],11200 nM and 3660 nM
same,GI50,[10],1720 nM and 1760 nM
same,TGI,[10],8830 nM and 5740 nM
same,GI50,[11],1180 nM and 1280 nM
same,TGI,[11],3190 nM and 3100 nM
same,GI50,[12],457 nM and 498 nM
same,TGI,[12],2390 nM and 1780 nM
same,GI50,[13],350 nM and 558 nM
same,TGI,[13],2300 nM and 6840 nM
same,GI50,[14],181 nM and 522 nM
same,TGI,[14],887 nM and 2150 nM
same,GI50,[15],1110 nM and 1360 nM
same,TGI,[15],4390 nM and 3230 nM
same,GI50,[16],1200 nM and 624 nM
same,TGI,[16],6380 nM and 3150 nM
same,GI50,[17],1290 nM and 1680 nM
same,TGI,[17],4470 nM and 5560 nM
same,GI50,[18],481 nM and 542 nM
same,TGI,[18],2450 nM and 2640 nM
same,GI50,[19],498 nM and 552 nM
same,TGI,[19],3020 nM and 3550 nM
same,GI50,[20],639 nM and 1180 nM
same,TGI,[20],4050 nM and 4510 nM
same,GI50,[21],149 nM and 224 nM
same,TGI,[21],1400 nM and 1570 nM
same,GI50,[22],370 nM and 580 nM
same,TGI,[22],1580 nM and 2170 nM
same,GI50,[23],669 nM and 997 nM
same,TGI,[23],2460 nM and 2430 nM
same,GI50,[24],680 nM and 1210 nM
same,TGI,[24],2190 nM and 2890 nM
same,GI50,[25],353 nM
same,TGI,[25],1540 nM
same,GI50,[26],1170 nM and 798 nM
same,TGI,[26],3130 nM and 2920 nM
same,GI50,[27],582 nM
same,TGI,[27],1990 nM and 2030 nM
same,GI50,[28],369 nM and 689 nM
same,TGI,[28],2540 nM and 4090 nM
same,GI50,[29],376 nM and 1280 nM
same,TGI,[29],1820 nM and 2730 nM
same,GI50,[30],628 nM and 1140 nM
same,TGI,[30],2360 nM and 3210 nM
same,GI50,[31],847 nM and 1080 nM
same,TGI,[31],2750 nM and 3060 nM
same,GI50,[32],1750 nM and 1440 nM
same,TGI,[32],3750 nM and 3400 nM
same,GI50,[33],1090 nM and 1760 nM
same,TGI,[33],4330 nM and 6240 nM
same,GI50,[34],849 nM and 1310 nM
same,TGI,[34],2850 nM and 2890 nM
same,GI50,[35],1550 nM and 1370 nM
same,TGI,[35],4510 nM and 3210 nM
same,GI50,[36],356 nM and 717 nM
same,TGI,[36],2360 nM and 2780 nM
same,GI50,[37],1280 nM and 1840 nM
same,TGI,[37],4310 nM and 8030 nM
same,GI50,[38],620 nM and 1010 nM
same,TGI,[38],3170 nM and 3930 nM
same,GI50,[39],1370 nM and 1910 nM
same,TGI,[39],4640 nM and 5840 nM
same,GI50,[40],278 nM and 339 nM
same,TGI,[40],784 nM and 1120 nM
same,GI50,[41],648 nM and 1050 nM
same,TGI,[41],2560 nM and 2820 nM
same,GI50,[42],1580 nM and 1980 nM
same,TGI,[42],3340 nM and 4290 nM
same,GI50,[43],1470 nM and 1800 nM
same,TGI,[43],3000 nM and 3320 nM
same,GI50,[44],1550 nM and 1430 nM
same,TGI,[44],3570 nM and 3220 nM
same,GI50,[45],1290 nM and 1150 nM
same,TGI,[45],2860 nM and 2430 nM
same,GI50,[46],672 nM
same,TGI,[46],1820 nM
same,GI50,[47],1450 nM and 1190 nM
same,TGI,[47],3280 nM and 2580 nM
same,GI50,[48],587 nM and 586 nM
same,TGI,[48],2620 nM and 2940 nM
same,GI50,[49],1340 nM and 1850 nM
same,TGI,[49],5600 nM and 8470 nM
same,GI50,[50],1080 nM and 1140 nM
same,TGI,[50],2440 nM and 2600 nM
same,GI50,[51],489 nM and 927 nM
same,TGI,[51],2590 nM and 3690 nM
same,GI50,[52],509 nM and 949 nM
same,TGI,[52],3030 nM and 3780 nM
same,GI50,[53],1580 nM and 1090 nM
same,TGI,[53],3670 nM and 3840 nM
same,GI50,[54],1120 nM and 1270 nM
same,TGI,[54],2630 nM and 3140 nM
same,GI50,[55],1650 nM and 1480 nM
same,TGI,[55],3250 nM and 2990 nM
same,GI50,[56],641 nM and 1300 nM
same,TGI,[56],2120 nM and 2730 nM
same,GI50,[57],366 nM and 758 nM
same,TGI,[57],2020 nM and 3200 nM
